Read-outs that look alike come from different tables or passages of the source.
Tests used:
[1] = tested on: cucumber seeds
Procedure: The germination test was performed according to Annex to chapter 5, International Rules for Seed Testing, International Seed Testing Association, Zurich, Switzerland, 1996.

[2] = tested on: cucumber seeds; remark: listed apart in the source
Procedure: CGMMV was tested by ELISA assay according to method 7-026 of the international rules for seed testing annex to chapter 7: seed health testing methods; International Seed Testing Association, Zurich, Switzerland, 2010. The germination test was performed on petri dishes (TOP) at 24 C incubator and root protrusion was counted at 4 days after seeding (TOP at 4 d).

[3] = tested on: CGMMV; details: watermelon seeds; vacuum infiltration 0.2% solution, 40 minutes, sinking fraction; 2000 seeds

SMILES: O=c1nc([O-])n(Cl)c(=O)n1Cl.[Na+] [Na-Dichloroisocyanurate]
- Germination % ([1]; Na-Dichloroisocyanurate 0.4%, standard disinfection): 96%
- Germination % ([1]; Na-Dichloroisocyanurate 0.4%, vacuum infiltration): 100%
- Germination % ([1]; Na-Dichloroisocyanurate 0.75%, vacuum infiltration): 100%
- Germination % ([1]; Na-Dichloroisocyanurate 1.5%, vacuum infiltration): 100%
- Germination % ([1]; Na-Dichloroisocyanurate 2.0%, vacuum infiltration): 100%
- % Germination TOP at 4 d ([2]; seed lot A, VI disinfection 1.5%, heavy fraction): 100%
- % Germination TOP at 4 d ([2]; seed lot A, standard disinfection 2.5%): 100%
- % Germination TOP at 4 d ([2]; seed lot B, VI disinfection 1.5%, heavy fraction): 100%
- % Germination TOP at 4 d ([2]; seed lot B, standard disinfection 2.5%): 100%
- CGMMV by ELISA assay [3]: negative
